These results are taken from paper PMC7151106 (Pharmaceutics, 2020).

For data set [1], the target named is T1, SGLT1 (Homo sapiens, UniProt P13866).
T1 construct: host or cells: CHO
T1 sequence (P13866 1-664): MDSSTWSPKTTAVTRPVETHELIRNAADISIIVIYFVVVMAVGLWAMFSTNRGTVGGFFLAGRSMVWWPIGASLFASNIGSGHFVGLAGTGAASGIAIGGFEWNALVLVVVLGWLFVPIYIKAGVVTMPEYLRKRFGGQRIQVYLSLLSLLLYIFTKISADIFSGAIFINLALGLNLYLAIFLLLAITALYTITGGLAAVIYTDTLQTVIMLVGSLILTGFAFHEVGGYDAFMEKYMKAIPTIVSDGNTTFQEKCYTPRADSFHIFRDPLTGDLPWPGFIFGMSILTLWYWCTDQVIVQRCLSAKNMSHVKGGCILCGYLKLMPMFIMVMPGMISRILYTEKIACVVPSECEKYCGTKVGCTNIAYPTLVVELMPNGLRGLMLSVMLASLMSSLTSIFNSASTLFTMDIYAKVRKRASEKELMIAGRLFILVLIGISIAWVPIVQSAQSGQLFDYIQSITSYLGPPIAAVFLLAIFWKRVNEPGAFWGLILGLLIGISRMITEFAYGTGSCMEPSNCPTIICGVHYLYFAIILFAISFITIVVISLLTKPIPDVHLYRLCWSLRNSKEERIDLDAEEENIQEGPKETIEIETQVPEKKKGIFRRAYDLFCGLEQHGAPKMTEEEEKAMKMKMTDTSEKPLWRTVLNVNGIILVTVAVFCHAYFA
The data set is described as follows: Inhibition of [14C]AMG uptake in CHO-SGLT1 cells. The class given is cell-based. The settings on record: 10 μM [14C]AMG, 2 h. How it is done: CHO cells overexpressing SGLT1 and SGLT2 cells (CHO-SGLT1 and -SGLT2) and CHO-mock cells were characterized as previously described. Cells were maintained in RPMI1640 medium supplemented with 10% fetal bovine serum and 200 µg/mL G418 at 37 °C in 5% CO2 conditions. CHO-SGLT1 and -SGLT2 cells were seeded at a density of 1 × 10^5 cells/well in 96-well plates. After 24 h, the growth medium was discarded from the cells, and the cells were washed with pre-warmed Na^+-free buffer (10 mM HEPES, 5 mM Tris, 140 mM choline chloride, 2 mM KCl, 1 mM CaCl2, 1 mM MgCl2, pH7.4) and incubated for 1 h in Na^+-free buffer. After replacing Na^+-free buffer with Na^+ gradient buffer (10 mM HEPES, 5 mM Tris, 140 mM NaCl, 2 mM KCl, 1 mM CaCl2, 1 mM MgCl2, pH7.4) containing 10 µM [^14C]AMG, the uptake of [^14C]AMG into the CHO-mock cells and CHO-SGLT1 and -SLGT2 cells was measured for 0.5, 1, 1.5, 2, and 3 h. After a predetermined incubation time, cells were washed three times with 200 µL of ice-cold Na^+-free buffer immediately after placing the plates on ice. Then, the cells were lysed with 10% SDS, and the cell lysates were mixed with Optiphase cocktail solution. Thereafter, the radioactivity of the cell lysates was measured using a liquid scintillation counter.
After 2 h, cells were washed three times with 200 µL of ice-cold Na^+-free buffer and the cells were lysed with 10% SDS (40 µL), followed by adding Optiphase cocktail solution (200 µL). The radioactivity of the cell lysates was measured using a liquid scintillation counter. The SGLT1 or SGLT2-mediated uptake of [^14C]AMG was calculated by the subtraction of the uptake rates of [^14C]AMG into the mock cells from those of the CHO-SGLT1 and -SLGT2 cells. In the inhibition studies, the percentages of the transport rate of AMG with or without SGLT2 inhibitors were calculated and the data were fitted to an inhibitory effect model. The IC50 (the concentration of the inhibitor to show half-maximal inhibition) values were calculated using Sigma Plot ver.10.0 (Systat Software, Inc.; San Jose, CA, USA).

For data set [2] the following is noted: mouse, in vivo, po, 1 mg/kg.
Method: (§5) An aliquot (30 µL) of each plasma sample was stored at −80 °C until the analysis. […] An aliquot (50 µL) of each kidney homogenate sample was stored at −80 °C until the analysis.
(§6) For the analysis of SGLT2 inhibitors, aliquots of plasma (30 µL) and kidney homogenate (50 µL) were added to 100 μL of aqueous solution of D4-DWP16001 (IS, 20 ng/mL), and vigorously mixed with 500 μL methyl tert-butyl ether (MTBE) for 15 min. After centrifugation at 16,000 g for 5 min, samples were kept for 1 h at −80 °C to make an aqueous layer freeze. An organic upper layer was transferred to a clean tube and evaporated to dryness under a gentle stream of nitrogen. Then, the dried extract was reconstituted in 150 µL of mobile phase, and a 3 µL aliquot of the reconstituent was injected into a liquid chromatography–tandem mass spectrometry (LC–MS/MS) system.
(§7) Pharmacokinetic parameters, such as the area under plasma concentration-time curve from zero to infinity (AUC), were calculated from plasma concentration vs time curves using non-compartment analysis with WinNonlin (version 5.1; Pharsights, Cary, NC, USA). The AUC ratios (i.e., ratios of kidney AUC to plasma AUC) were calculated by dividing the AUC of the three SGLT2 inhibitors in the kidney by the plasma AUC values of the three SGLT2 inhibitors.
Data set [3] in a line: in vivo. The settings on record: ICR, mouse, po, 1 mg/kg.
Method: as §5, §6, §7
Details of data set [4]: method as in PMID 27430987. To be noted: cited from earlier work.
Data set [5] concerns the target T2, SGLT2 (Homo sapiens, UniProt P31639).
T2 construct: host or cells: CHO
T2 sequence (P31639 1-672): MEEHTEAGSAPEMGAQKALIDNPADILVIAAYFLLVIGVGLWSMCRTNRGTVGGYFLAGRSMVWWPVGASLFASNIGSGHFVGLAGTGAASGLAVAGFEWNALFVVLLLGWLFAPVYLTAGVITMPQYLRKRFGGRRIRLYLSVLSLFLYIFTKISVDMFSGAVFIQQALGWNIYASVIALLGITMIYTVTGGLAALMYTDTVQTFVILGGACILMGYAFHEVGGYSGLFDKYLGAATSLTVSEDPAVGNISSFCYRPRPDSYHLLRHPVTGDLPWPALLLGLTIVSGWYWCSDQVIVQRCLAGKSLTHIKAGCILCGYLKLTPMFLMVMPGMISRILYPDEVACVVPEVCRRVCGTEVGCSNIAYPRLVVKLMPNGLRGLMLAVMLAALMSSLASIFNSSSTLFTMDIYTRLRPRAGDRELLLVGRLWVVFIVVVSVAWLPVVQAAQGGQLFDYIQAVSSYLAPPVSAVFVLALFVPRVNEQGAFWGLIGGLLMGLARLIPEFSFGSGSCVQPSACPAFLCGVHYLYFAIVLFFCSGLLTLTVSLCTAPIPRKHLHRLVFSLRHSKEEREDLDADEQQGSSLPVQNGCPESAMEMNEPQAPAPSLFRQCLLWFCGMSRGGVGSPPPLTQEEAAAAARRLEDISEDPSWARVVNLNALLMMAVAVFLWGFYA
Put plainly: Recovery of SGLT2 activity after washout following 24 h exposure in CHO-SGLT2 cells. Format: cell-based. To be noted: 0.2–200 nM. As for the experimental part: After 24 h, the RPMI1640 medium was replaced with pre-warmed fresh RPMI1640 medium and incubated for 1, 2, 3, 5, and 6 h, and proceeded another pre-incubation with Na^+-free buffer for 1 h. Then, after replacing Na^+-free buffer with Na^+ gradient buffer containing 10 µM [^14C]AMG, the uptake of [^14C]AMG into the CHO-SGLT2 cells was measured for 2 h. After 2 h of incubation, the radioactivity of the cell lysate was measured following the same sample preparation method described above.

The subject of data set [6] is T3, OAT3.
T3 construct: host or cells: HEK293
The data set is described as follows: Substrate specificity / uptake in HEK293-OAT3 cells. The class given is in vitro ADME. To be noted: 5 min. How it is done: (§1) HEK293-mock cells and HEK293 cells overexpressing OAT1 and OAT3 transporters (HEK293-OAT1 and -OAT3, respectively) were seeded in poly-D-lysine-coated 24-well plates at a density of 4 × 10^5 cells/well and cultured for 24 h in DMEM supplemented with 10% FBS and 5 mM non-essential amino acids at 37 °C in 8% CO2 condition.
(§2) For each experiment, the growth medium was discarded after 24 h, and the attached cells were washed with pre-warmed HBSS and incubated with pre-warmed HBSS for 20 min at 37 °C. To confirm the functionality of OAT1 and OAT3, we measured the uptake of 0.1 µM [^3H]PAH and 0.1 µM [^3H]ES, representative substrates for OAT1 and OAT3, respectively, into in the HEK293-mock cells and HEK293-OAT1 and -OAT3 cells, respectively, for 5 min in the presence and absence of 20 µM probenecid, a typical inhibitor for both OAT1 and OAT3 [8, 9]. The cells were then washed three times with 500 μL of ice-cold HBSS immediately after placing the plates on ice. Subsequently, cells were lysed with 10% sodium dodecyl sulfate and mixed with Optiphase cocktail solution overnight. The radioactivity of the cell lysate was measured using a liquid scintillation counter (Microbeta 2; Perkin Elmer Inc., Boston, MA, USA).
(§3) For the concentration dependency in the uptake of DWP16001, the uptake of DWP16001 in a concentration range of 0.5–50 μM dissolved in HBSS was measured for 5 min at 37 °C in the mock cells and HEK293-OAT1 and -OAT3 cells, respectively. After 5 min, the cells were washed three times with 500 μL of ice-cold HBSS immediately after placing the plates on ice.
(§4) In the concentration-dependent uptake studies, the transporter-mediated uptake of DWP16001 was calculated by the subtraction of the transport rates of DWP16001 into the mock cells from those of the HEK293-OAT1 and -OAT3 cells. Kinetic parameters for the OAT1- and OAT3-mediated transport of DWP16001 were determined using the Michaelis-Menten equation [V = Vmax⋅S/(Km + S)] [10].

Data set [7] has as its target T2, SGLT2. The data set is described as follows: Time dependency of SGLT2 inhibition (preincubation) in CHO-SGLT2 cells. The class given is cell-based. To be noted: pretreatment 0, 1, 2 h. How it is done: After 2 h of incubation, the radioactivity of the cell lysate was measured following the same sample preparation method described above.
Data set [8] is described as follows: physchem.
Data set [9] has as its system T4, OAT1.
T4 construct: host or cells: HEK293
The data set is described as follows: Substrate specificity / uptake in HEK293-OAT1 cells. The class given is in vitro ADME. The settings on record: 5 min. How it is done: as §1, §2, §3, §4

Data set [10] has as its target T2, SGLT2. Put plainly: Mode of inhibition on SGLT2 (Dixon plots) in CHO-SGLT2 cells. Format: cell-based. To be noted: 1, 2.5, 5, 50 μM [14C]AMG. As for the experimental part: The radioactivity of the cell lysate was measured following the same sample preparation method described above.

As to `CO[C@H]1O[C@H](CO)[C@@H](O)[C@H](O)[C@H]1O` [AMG, methyl a-D-glucopyranoside], the “AMG uptake into CHO-SGLT1 cells relative to CHO-mock cells” value in [1] came to 42 fold.

Take `CCOc1ccc(Cc2cc([C@@H]3O[C@H](CO)[C@@H](O)[C@H](O)[C@H]3O)ccc2Cl)cc1` [Dapagliflozin, dapagliflozin]: the AUC72h in [2] was determined as 26.30 ± 3.34 μg∙h/g tissue. In [3], this compound registered an AUC(0-inf) of 550 ± 144000 ng·h/mL, an AUC(0-t) of 480 ± 180 ng·h/mL, a Cmax of 275 ± 144 ng/mL and a Kp of 64.6 ± 31.8. The “Duration of increased urinary glucose excretion post dose” value in data set [4] was no less than 18 h. The “Time after drug removal to recovery of SGLT2 activity to the control level” value in data set [5] is 4 h. For the same compound, the “Substrate for OAT3” value in data set [6] (2 μM, HEK293-OAT3 vs mock, ± 20 μM probenecid) is recorded as “not substrates”. In data set [7], the “Time dependency of SGLT2 inhibition” value is listed as “time-independent”. The logP in data set [8] is 2.27. The “Substrate for OAT1” value in [9] (2 μM, HEK293-OAT1 vs mock, ± 20 μM probenecid) is recorded as “not substrates”. The “Mode of inhibition on SGLT2” value in data set [10] was “reversible and competitive”.

Take `C[C@]12CC[C@@H]3c4ccc(OS(=O)(=O)O)cc4CC[C@H]3[C@@H]1CCC2=O` [ES, Estrone-3-sulfate]: the “Increase in probe substrate uptake in HEK293-OAT3 vs HEK293-mock cells” value in data set [6] (0.1 μM [3H]ES) is 16.4 fold.

As to `Nc1ccc(C(=O)NCC(=O)O)cc1` [PAH, Para-aminohipuric acid], the “Increase in probe substrate uptake in HEK293-OAT1 vs HEK293-mock cells” value in [9] (0.1 μM [3H]PAH) worked out at 14.7 fold.
